The compounds below were run against T1, TDP1 (Homo sapiens, UniProt Q9NUW8) (assay: Real-time fluorescence detection of TDP1 activity, single-stranded FAM/BHQ biosensor). Conditions: 37 compared to 36; 42 compared to 41; ratio of IC50.
T1 construct: made in house; host or cells: E. coli
Assay type: biochemical
Description: Conditions and details for our real-time detection of TDP1 activity using the single-stranded and hairpin fluorescent biosensors were reported in our previous work[47]. Briefly, the approach consists in fluorescence intensity measurement of the reaction of quencher removal from the fluorophore-quencher coupled DNA-oligonucleotide catalysed by TDP1 in the presence of inhibitor and in the absence of it (the control samples contained 1% DMSO). Reaction mixtures (200 µl) contained TDP1 buffer (50 mM Tris-HCl, pH 8.0, 50 mM NaCl, 7 mM β-mercaptoethanol), oligonucleotide (50 nM substrate of TDP1), testable inhibitor and purified TDP1 (1.5 nM). The reactions were incubated at a constant temperature of 26 °C in a POLARstar OPTIMA fluorimeter, BMG LABTECH, GmbH, to measure fluorescence every 55 s (Ex485/Em520 nm) during the linear phase (here data from 0 to 8 min). The average values of half maximal inhibitory concentration (IC50) were determined using an eleven-point concentration response curve in three independent experiments and calculated using MARS Data Analysis 2.0 (BMG LABTECH).
To discover inhibitors of TDP1 we recently developed original single-stranded and hairpin fluorophore–quencher coupled DNA-biosensors for real-time measurement of TDP1 cleavage activity. The single-stranded substrate is a 16-mer oligonucleotide containing both 5′-FAM fluorophore donor and a quenching 3′-BHQ moiety (Figure 1(A)). When the quencher is removed by TDP1, the fluorescence intensity increases and can be measured by fluorimeter (TDP1 catalysed reaction on biosensor is shown in Figure 3(A). Fluorescence intensity declines in the presence of inhibitor, the resulting curves of the dependence of TDP1 residual activity as a function of the concentration of inhibitors were obtained using 4-parameter logistic regression fit, which was used to calculate IC50 values[47]^,[58].
For primary screening, the effect of a large group of disaccharide nucleosides and their hydrophobic derivatives on human recombinant TDP1 activity has been evaluated by fluorescent method on a single-stranded substrate described above.

T1 sequence (Q9NUW8 whole entry): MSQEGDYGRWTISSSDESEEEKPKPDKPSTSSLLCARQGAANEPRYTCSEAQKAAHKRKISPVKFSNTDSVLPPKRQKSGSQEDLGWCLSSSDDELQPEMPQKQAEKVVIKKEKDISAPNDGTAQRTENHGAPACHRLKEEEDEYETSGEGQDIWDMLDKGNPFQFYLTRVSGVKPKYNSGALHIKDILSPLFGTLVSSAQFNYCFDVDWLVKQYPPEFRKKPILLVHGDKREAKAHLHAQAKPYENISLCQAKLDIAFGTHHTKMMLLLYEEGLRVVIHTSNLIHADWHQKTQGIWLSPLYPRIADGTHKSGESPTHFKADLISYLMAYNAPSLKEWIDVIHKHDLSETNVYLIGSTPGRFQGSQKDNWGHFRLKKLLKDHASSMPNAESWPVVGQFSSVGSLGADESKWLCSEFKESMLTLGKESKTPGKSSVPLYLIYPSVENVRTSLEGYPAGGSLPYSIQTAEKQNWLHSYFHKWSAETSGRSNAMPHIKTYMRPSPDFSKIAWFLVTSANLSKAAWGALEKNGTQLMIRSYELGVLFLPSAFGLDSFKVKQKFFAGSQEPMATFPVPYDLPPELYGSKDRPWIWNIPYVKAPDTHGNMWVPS

How did the “Increase of efficiency of TDP1 inhibition by appending TBDPS at 5'-position” value turn out when `CC(C)(C)[Si](OC[C@H]1O[C@@H](n2cc(I)c(=O)[nH]c2=O)C[C@@H]1O[C@@H]1O[C@H](COC(=O)c2ccccc2)[C@@H](OC(=O)c2ccccc2)[C@H]1OC(=O)c1ccccc1)(c1ccccc1)c1ccccc1` [Compound 42] was run?
Its value is “about 3.5 times”.

Which “Increase of efficiency of TDP1 inhibition by appending TBDPS at 5'-position” value does the source give for `CC(C)(C)[Si](OC[C@H]1O[C@@H](n2ccc(NC(=O)c3ccccc3)nc2=O)C[C@@H]1O[C@@H]1O[C@H](COC(=O)c2ccccc2)[C@@H](OC(=O)c2ccccc2)[C@H]1OC(=O)c1ccccc1)(c1ccccc1)c1ccccc1` [Compound 37] here?
Its value is “about 1.6 times”.

Same assay, conditions: single-stranded fluorescent biosensor 50 nM, TDP1 1.5 nM, 26 °C; read-out: IC50 (half-maximal inhibitory concentration) of TDP1 activity

`CC(C)(C)[Si](OC[C@H]1O[C@@H](n2cc(I)c(=O)[nH]c2=O)C[C@@H]1O[C@@H]1O[C@H](COC(=O)c2ccccc2)[C@@H](OC(=O)c2ccccc2)[C@H]1OC(=O)c1ccccc1)(c1ccccc1)c1ccccc1` [Compound 42] was tested. Which IC50 did it give?
The IC50 was 800 ± 100 nM.

With `Cc1cn([C@H]2C[C@H](O[C@@H]3O[C@H](COC(=O)c4ccccc4)[C@@H](OC(=O)c4ccccc4)[C@H]3OC(=O)c3ccccc3)[C@@H](CO[C@@H]3O[C@H](COC(=O)c4ccccc4)[C@@H](OC(=O)c4ccccc4)[C@H]3OC(=O)c3ccccc3)O2)c(=O)[nH]c1=O` [Compound 33] as the compound, how does the IC50 read?
The IC50 was 1000 ± 100 nM.

With `O=C(Nc1ccn([C@H]2C[C@H](O[C@@H]3O[C@H](COC(=O)c4ccccc4)[C@@H](OC(=O)c4ccccc4)[C@H]3OC(=O)c3ccccc3)[C@@H](CO)O2)c(=O)n1)c1ccccc1` [Compound 36] as the compound, how does the IC50 read?
Its IC50 is 1500 ± 200 nM.

`CC(C)(C)[Si](OC[C@H]1O[C@@H](n2ccc(NC(=O)c3ccccc3)nc2=O)C[C@@H]1O[C@@H]1O[C@H](COC(=O)c2ccccc2)[C@@H](OC(=O)c2ccccc2)[C@H]1OC(=O)c1ccccc1)(c1ccccc1)c1ccccc1` [Compound 37] was tested. Which IC50 did it give?
Its IC50 is 900 ± 100 nM.

For `O=C(Nc1ccn([C@@H]2O[C@H](CO)[C@@H](O)[C@H]2O[C@@H]2O[C@H](COC(=O)c3ccccc3)[C@@H](OC(=O)c3ccccc3)[C@H]2OC(=O)c2ccccc2)c(=O)n1)c1ccccc1` [Compound 13], which IC50 is on record?
Its IC50 is 2600 ± 200 nM.

`CC(C)[Si]1(C(C)C)OC[C@H]2O[C@@H](n3ccc(NC(=O)c4ccccc4)nc3=O)[C@H](O[C@@H]3O[C@H](COC(=O)c4ccccc4)[C@@H](OC(=O)c4ccccc4)[C@H]3OC(=O)c3ccccc3)[C@@H]2O[Si](C(C)C)(C(C)C)O1` [Compound 16] was tested. Which IC50 did it give?
Its IC50 is 400 ± 100 nM.

Same assay, conditions: single-stranded fluorescent biosensor, primary screening

How did the “Inhibitory effect on TDP1 activity (in words)” value (“Inhibitory effect” below) turn out when `Cc1cn([C@@H]2O[C@H](CO)[C@@H](O)[C@H]2O[C@@H]2O[C@H](CO)[C@@H](O)[C@H]2O)c(=O)[nH]c1=O` [Compound 5] was run?
The value was “not inhibited”.

For `Nc1nc2c(ncn2[C@H]2C[C@H](O)[C@@H](CO[C@@H]3O[C@H](CO)[C@@H](O)[C@H]3O)O2)c(=O)[nH]1` [Compound 45], which “Inhibitory effect” value is on record?
The value was “weak inhibitory effect”.

`Nc1ccn([C@H]2C[C@H](O)[C@@H](CO[C@@H]3O[C@H](CO)[C@@H](O)[C@H]3O)O2)c(=O)n1` [Compound 46] was tested. Which “Inhibitory effect” value did it give?
Its value is “not inhibited”.

For `O=c1ccn([C@H]2C[C@H](O)[C@@H](CO[C@@H]3O[C@H](CO)[C@@H](O)[C@H]3O)O2)c(=O)[nH]1` [Compound 47], which “Inhibitory effect” value is on record?
Its value is “weak inhibitory effect”.

Which “Inhibitory effect” value does the source give for `Cc1cn([C@H]2C[C@H](O)[C@@H](CO[C@@H]3O[C@H](CO)[C@@H](O)[C@H]3O)O2)c(=O)[nH]c1=O` [Compound 44] here?
The value was “not inhibited”.

With `Nc1nc2c(ncn2[C@H]2C[C@H](O[C@@H]3O[C@H](CO)[C@@H](O)[C@H]3O)[C@@H](CO)O2)c(=O)[nH]1` [Compound 34] as the compound, how does the “Inhibitory effect” value read?
Its value is “not inhibited”.

With `Cc1cn([C@H]2C[C@H](O[C@@H]3O[C@H](COP(=O)([O-])[O-])[C@@H](O)[C@H]3O)[C@@H](CO)O2)c(=O)[nH]c1=O.[Na+].[Na+]` [Compound 25] as the compound, how does the “Inhibitory effect” value read?
Its value is “does not lead to the noticeable inhibitory effect”.

With `Nc1ccn([C@H]2C[C@H](O[C@@H]3O[C@H](CO)[C@@H](O)[C@H]3O)[C@@H](CO)O2)c(=O)n1` [Compound 35] as the compound, how does the “Inhibitory effect” value read?
Its value is “not inhibited”.

For `Nc1ncnc2c1ncn2[C@H]1C[C@H](O)[C@@H](CO[C@@H]2O[C@H](CO)[C@@H](O)[C@H]2O)O1` [Compound 43], which “Inhibitory effect” value is on record?
Its value is “not inhibited”.

Which “Inhibitory effect” value does the source give for `O=c1ccn([C@@H]2O[C@H](CO)[C@@H](O)[C@H]2O[C@@H]2O[C@H](CO)[C@@H](O)[C@H]2O)c(=O)[nH]1` [Compound 17] here?
The value was “not inhibited”.

With `Cc1cn([C@H]2C[C@H](O[C@@H]3O[C@H](CO)[C@@H](O)[C@H]3O)[C@@H](COP(=O)(O)O)O2)c(=O)[nH]c1=O.N.N` [Compound 26] as the compound, how does the “Inhibitory effect” value read?
Its value is “does not lead to the noticeable inhibitory effect”.

For `Nc1ncnc2c1ncn2[C@H]1C[C@H](O[C@@H]2O[C@H](CO)[C@@H](O)[C@H]2O)[C@@H](CO)O1` [Compound 22], which “Inhibitory effect” value is on record?
Its value is “not inhibited”.

How did the “Inhibitory effect” value turn out when `Nc1ncnc2c1ncn2[C@@H]1O[C@H](CO)[C@@H](O)[C@H]1O[C@@H]1O[C@H](CO)[C@@H](O)[C@H]1O` [Compound 1] was run?
Its value is “not inhibited”.

With `Nc1ccn([C@@H]2O[C@H](CO)[C@@H](O)[C@H]2O[C@@H]2O[C@H](CO)[C@@H](O)[C@H]2O)c(=O)n1` [Compound 12] as the compound, how does the “Inhibitory effect” value read?
The value was “not inhibited”.

How did the “Inhibitory effect” value turn out when `O=c1ccn([C@H]2C[C@H](O[C@@H]3O[C@H](CO)[C@@H](O)[C@H]3O)[C@@H](CO)O2)c(=O)[nH]1` [Compound 38] was run?
The value was “not inhibited”.

With `Cc1cn([C@H]2C[C@H](O[C@@H]3OC[C@@H](O)[C@@H](O)[C@H]3O)[C@@H](CO)O2)c(=O)[nH]c1=O` [Compound 27] as the compound, how does the “Inhibitory effect” value read?
Its value is “did not observe any inhibitory effect”.

`O=c1[nH]c(=O)n([C@H]2C[C@H](O[C@@H]3OC[C@@H](O)[C@@H](O)[C@H]3O)[C@@H](CO)O2)cc1I` [Compound 40] was tested. Which “Inhibitory effect” value did it give?
Its value is “did not observe any inhibitory effect”.

How did the “Inhibitory effect” value turn out when `Cc1cn([C@@H]2C[C@H](O[C@@H](C=O)O[C@@H](C=O)CO)[C@@H](CO)O2)c(=O)[nH]c1=O` [Compound 30] was run?
The value was “did not lead to the noticeable inhibitory activity”.

How did the “Inhibitory effect” value turn out when `Nc1nc2c(ncn2[C@@H]2O[C@H](CO)[C@@H](O)[C@H]2O[C@@H]2O[C@H](CO)[C@@H](O)[C@H]2O)c(=O)[nH]1` [Compound 8] was run?
Its value is “not inhibited”.

With `CC(=O)O[C@H]1[C@H](O[C@H]2C[C@H](n3cc(C)c(=O)[nH]c3=O)O[C@@H]2CO)OC[C@@H](OC(C)=O)[C@H]1OC(C)=O` [Compound 28] as the compound, how does the “Inhibitory effect” value read?
Its value is “did not observe any inhibitory effect”.

— article PMC6136360, “Novel group of tyrosyl-DNA-phosphodiesterase 1 inhibitors based on disaccharide nucleosides as drug prototypes for anti-cancer therapy” (Journal of Enzyme Inhibition and Medicinal Chemistry, 2018)
